Experimental data as given in patent US12667568B2, “Compositions and methods for the treatment and diagnosis of cancer” (The General Hospital Corporation, priority 2020, dated 2026).

Legend:
[1] = system: MD-MBA-231 xenograft tumors; experiment: MD-MBA-231 xenograft with PARPi; assay type: in vivo, BALB/c nude mice
Method: FIGS. 9A-9G show SYCP2 is required for efficient homologous recombination. (FIG. 9A) Cell survival rate of HeLa and MDAMB231 via colony forming assay with the treatment of […], 4 μm, 6 μM, 8 μM, 16 μM of Olaparib (n=3, mean+/−S.D.). Western blot of SYCP2 overexpression in HeLa and MDA-MB-231 is shown in the left. (FIG. 9B) Cell survival rate of HeLa via colony forming assay with the treatment of 1 μM, 2 μm, 3 μM of Olaparib (n=3, mean+/−S.D.). Western blot of SYCP2 knockdown in Hela is shown in the left. (FIG. 9C) Scheme of Xenograft design using intraperitoneal injection of MBA-MD-231 into successful developed mouse model with virus-associated SYCP2 knockdown and control groups is shown in the left. PARPi was injected every 2 days after day 7. The graph is shown the recorded tumor size of each tested group with PARPi treatment or saline at each treatment day. (FIG. 9D). Numbers of SYCP2 IR induced foci (IRIF) colocalizing with γH2AX in MDAMB231 and HeLa cells. Cells were fixed and counted for foci numbers after 2 Gy IR followed up indicated recovery time (t=0 hr, 12 hr, 24 hr, and 48 hr) (n=30, mean+/−S.D). (FIG. 9E). […] Fold increase of mean intensity at sites of irradiation compared to mean intensity of nucleus expression is quantified (n=5, mean+/−SD). […] Numbers of RAD51 IRIF in siCtrl and siSYCP2 treated MDAMB231 and U2OS cells after 2 Gy IR and 1 hour recovery were counted (n=20, +/SD). […]

[2] = system: HST578, MBAMD231, HCC1937, HCC1954 cancer cells; experiment: Cell survival assay, TRDMT1i alone (Example 19); assay type: cell-based; settings: HCC1954, HRD, high SYCP2
Method: FIGS. 14A-14C show TRDMT1i alone reduce cancer cell survival in a dose-dependent manner. (FIG. 14A) Survival rate of HR proficient (HR+) HST578 cancer cells with and without siBRCA1 and/or TRDMT1i YW-1842 at indicated dose. The survival rate of these cells was analyzed (n=3, Mean±SD). (FIG. 14B) Survival rate of MBAMD231 (HR+) and HCC1937 (HRD) cells. The survival rate of these cells was analyzed (n=3, Mean±SD). (FIG. 14C) Cell survival rate in different cancer cell lines via colony-forming assay with the treatment of Imatinib at indicated dose (n=3, mean+/−S.D.). Cell lines are listed in order with the expression level from SYCP2high to SYCP2low.
Cells were seeded in each 6-cm dish and cultured as described above. They were treated with drugs with indicated dose in medium after seeding. After 7-10 days, colonies were fixed and stained with 0.3% crystal violet in methanol, and the number of colonies was counted manually.

[3] = system: ZR-75-30, MCF7, HCC-1954, HCC-1937, MDA-MB-468 and MDA-MB-231; experiment: Colony formation assay with Olaparib in six breast cancer cell lines; assay type: cell-based
Method: FIGS. 10A-10E show SYCP2 promotes RAD51 localization to DSBs independently of BRCA1. (FIG. 10A) The schematic mechanism of HR in the absence of BRCA1/2 for RAD51 loading with the help of SYCP2. RAD51 IRIF in BRCA1 mutant breast cancer cell lines after 2 Gy IR and 1 hour recovery with or without siSYCP2. Numbers of RAD51 foci per cell in siCtrl and siSYCP2 were quantified (n=20). The frameshift mutation of BRCA1 in cell line HCC1954 and HCC1937 is listed in the right. (FIG. 10B) The frequency of BRCA1 and SYCP2 IRIF colocalizing with γ-H2AX in U2OS cells after 2 Gy IR and recovery of 1 hour. Western blot of BRCA1 and SYCP2 knockdown and RAD51 expression level was shown in the left. (FIG. 10C) Comparison of SYCP2 RNA expression (CCLE database) in BRCA1/2 mutant and wildtype breast cancer cell lines. The analysis is normalized to Fragments Per Kilobase Million (FPKM). (FIG. 10D) Plot of correlation between SYCP2 expression and IC50 of Olaparib in groups of BRCA WT vs. mutant cells (left), high BRCA1 vs. low BRCA1 (right). p values and r values were determined by using Pearson correlated analysis. […]
Approximately 400 cells were replanted on 6-cm dishes 48 h after siRNA transfection. […] Colonies were stained with 0.3% crystal violet/methanol and counted 9 days after treatments. Each experiment was performed at least 3 times and the standard errors were calculated and indicated in the graphs. […]

[4] = system: SKOV3 subcutaneous xenograft tumors; experiment: SKOV3 xenograft with Cisplatin; assay type: in vivo, BALB/c nude mice; settings: Cisplatin 5 mg/kg into tumor twice per week for 3 weeks, Lv-shTRDMT1 versus Lv-NC
Method: FIGS. 5A-5E show reduced TRDMT1 expression renders Cisplatin sensitization in vivo. (FIG. 5A) Lv-shTRDMT1 or Lv-NC transfected SKOV3 cells were subcutaneously injected into BALB/c nude mice, a week after injection, Cisplatin (5 mg/kg) or saline was injected into the center of the xenograft tumors twice per week for 3 consecutive weeks. (FIG. 5B) Representative images of tumors in xenografts transfected with LV-shTRDMT1/LV-NC with saline or Cisplatin treatment. (FIG. 5C) Tumor size of SKOV3 subcutaneous xenograft tumors (n=6, Mean±SD). (FIG. 5D) WB for TRDMT1 in tumor tissues collected from mice in each group (Tissues from six tumors in the same group were mixed into one sample). (FIG. 5E) IHC of TRDMT1 and KI-67 expression in ovarian cancer tissues of patients who were platinum-sensitive (PFS>6) and —resistant (PFS<6) Staining was assessed and scored on a scale of 0 (<5% staining) to 4 (>75% staining) in G. Quantification of IHC staining (n=38, PFS>6, n=24; PFS<6, n=14) was shown. […]
When mice developed palpable tumors (about a week after injection), cDDP (5 mg/kg) or saline were then injected into the center of the xenograft tumors twice per week for 3 consecutive weeks. […] PFS was calculated from the time of surgery to the time of progression or recurrence. […]

breast tumors = experiment: Sacituzumab Govitecan (IMMU-132) clinical trial, outcome by SYCP2 IHC; assay type: in vivo; settings: 16 patients
Source text: FIGS. 13A-13D show high SYCP2 expression associates with poor prognosis and drug resistance in patients. (FIG. 13A). Summarization of subtypes of breast cancer patients in a Sacituzumab Govitecan (IMMU-132) clinical trial group. Patients were divided to high SYCP2 group and low SYCP2 group by IHC of SYCP2. IHC staining of SYCP2 expression in patient tumor tissues from the IMMU-132 clinical trial group. Representative images were shown. Cutoff value is median. Numbers of patients' response as Partial Response (PR) or Stable Disease (SD) in low SYCP2 group and high SYCP2 group in IMMU clinical trial are shown. (FIG. 13B) Kaplan-Meier curves of patients' overall survival and progression free survival in FIG. 13A. (FIG. 13C) Overall survival curves of 1095 patients from TCGA. Cutoff value is median. R value and p value were calculated by COX survival analysis. […]
The collected tumor specimens and adjacent normal tissue samples were fixed in 4% parafoiinaldehyde, stored in PBS. After sucrose infiltration, samples were filled with OTC and ready for cryosection. […] After deparaffinization and rehydration, sections were blocked and incubated with antibody against SYCP2 (PAS-67554, 1:20), Ki-67 (sc-23900, Santa Cruz, 1:200), and then detected using the Dako Envision two-step method of immunohistochemistry (Carpinteria, CA, USA). […] All IHC staining was scored independently by 2 pathologists. […]

O=C(c1cc(Cc2n[nH]c(=O)c3ccccc23)ccc1F)N1CCN(C(=O)C2CC2)CC1 [Olaparib]
tumor growth, control tumors ([1]; siControl tumors, intraperitoneal, every 2 days after day 7, 23 days): reduced the growth of control tumors
tumor growth, SYCP2 knockout tumors ([1]; siSYCP2 tumors versus control tumors): reduced the growth of SYCP2 knockout tumors more than control tumors
response of HCC1954 to PARPi [2]: relatively resistant
PARPi sensitivity, BRCA1 mutant versus non-mutant ([3]; among four cell lines expressing high levels of SYCP2): more sensitive
PARPi sensitivity, low versus high SYCP2 ([3]; among four cell lines without BRCA mutations): much more sensitive

N.N.[Cl][Pt][Cl] [cisplatin]
xenograft tumor size, Lv-shTRDMT1 tumors [4]: grew statistically smaller

Sacituzumab Govitecan
response rate in patients with SYCP2high tumors (breast tumors; SYCP2high versus SYCP2low by IHC): reduced rate of partial response (PR) but an increased rate of stable disease (SD)
survival in patients with high SYCP2 expression (breast tumors; high SYCP2 expression): shorter overall survival and progression-free survival
